# According to US10874108B2, “Anti-microbial compositions” (5D HEALTH PROTECTION GROUP LTD, priority 2016, dated 2020):
# How the values were obtained:
# Assay type in all cases: cell-based
# P. aeruginosa biofilms = assay: MBEC plate 48-hour biofilm, liquid EDTA-Ag2-Zn compound
# Description: Biofilms were formed using the MBEC plate method. Log reduction (LR) values are expressed with standard error. N.D (not determined) is stated when no colonies were detected upon enumeration.
# interleukin-6 (IL-6) = assay: IL-6 ELISA, wounded biofilm-containing Labskin; conditions: 100 ppm; vs S. aureus wound biofilm control
# Description: Enzyme-linked immunosorbent assay (ELISA) was used to assess the secreted levels of the inflammatory cytokine interleukin-6 (IL-6) according to previously published methods (Foster, A. M., Baliwag, J., Chen, C. S., Guzman, A. M., Stoll, S. W., Gudjonsson, J. E., Ward, N. L. & Johnston, A. 2014, IL-36 promotes myeloid cell infiltration, activation, and inflammatory activity in skin, The Journal of Immunology, 192, 6053-6061). […] The IL-6 levels were reduced further when compared to the S. aureus wound biofilm control.
# ELISA was used to assess the levels of IL-6 in conditioned cell culture medium. Culture medium was changed at day 4, which accounts for the reduction in IL-6. […] Tests were performed in duplicate. Error bars indicate standard deviation.
# S. aureus wound biofilm = assay: Wound biofilm model (Labskin), histological examination; conditions: 100 ppm; day 6; vs untreated S. aureus wound biofilm
# [1] = test system: S. aureus 24-hour CDC biofilms; assay: Colonies after exposure of 24-hour CDC biofilms to EDTA compounds
# [2] = test system: P. aeruginosa 24-hour CDC biofilms; assay: as above
# [3] = test system: E. faecalis ATCC 29212 biofilm; assay: MBEC model (ASTM E2799), liquid formulas; conditions: treated 24 hours
# Procedure: (§1) The MBEC model (ASTM E2799) was used to assess the anti-biofilm efficacy of the liquid formulas. Biofilms were grown on polystyrene pegs in the MBEC model for either 24 or 48 hours before treatment. Using the liquid form of the EDTA complexes 24- and 48-hour biofilms were tested (Table 20).
# (§2) 24- and 48-hour biofilms were formed using MBEC plate method and treated for 24 hours. Technical replicates n=3. Log reduction (LR) values show±standard error (SE) of LR value.
# [4] = test system: S. epidermidis ATCC 35984 biofilm; assay: MBEC model (ASTM E2799), liquid formulas; conditions: treated 24 hours
# Procedure: as §1, §2
# [5] = test system: S. aureus MRSA BAA-43 biofilm; assay: MBEC model (ASTM E2799), liquid formulas; conditions: treated 24 hours
# Procedure: as §1, §2
# [6] = test system: S. aureus ATCC 29213 biofilm; assay: MBEC model (ASTM E2799), liquid formulas; conditions: treated 24 hours
# Procedure: as §1, §2
# [7] = test system: P. aeruginosa NCTC 10662 biofilm; assay: MBEC model (ASTM E2799), liquid formulas; conditions: treated 24 hours
# Procedure: as §1, §2
smiles,measurement,setting,value
"O=C([O-])CN(CCN(CC(=O)[O-])CC(=O)[O-])CC(=O)[O-].[Ag+].[Ag+].[Zn+2] [Compound 4, Ag2ZnEDTA]",% Kill,"P. aeruginosa biofilms; 125 ppm, treatment 24 hours",100%
same,% Kill,"P. aeruginosa biofilms; 250 ppm, treatment 1 hours",100%
same,% Kill,"P. aeruginosa biofilms; 250 ppm, treatment 24 hours",100%
same,% Kill,"P. aeruginosa biofilms; 500 ppm, treatment 1 hours",100%
same,% Kill,"P. aeruginosa biofilms; 500 ppm, treatment 24 hours",100%
same,% Kill,"P. aeruginosa biofilms; 1000 ppm, treatment 1 hours",100%
same,% Kill,"P. aeruginosa biofilms; 1000 ppm, treatment 24 hours",100%
same,secreted IL-6 (inflammatory marker),interleukin-6 (IL-6),significant reduction
same,amount of microorganisms within the tissues (histology),S. aureus wound biofilm,reduced amount of microorganisms within the tissues
same,Number of colonies detected,[1],0 Cfu/ml
same,Number of colonies detected,[2],0 Cfu/ml
same,Kill %,"[3]; 50 ppm, 24-Hour Biofilm",100%
same,LR,"[3]; 50 ppm, 24-Hour Biofilm",6.35
same,Kill %,"[3]; 50 ppm, 48-Hour Biofilm",100%
same,LR,"[3]; 50 ppm, 48-Hour Biofilm",6.40
same,Kill %,"[3]; 100 ppm, 24-Hour Biofilm",100%
same,LR,"[3]; 100 ppm, 24-Hour Biofilm",6.35
same,Kill %,"[3]; 100 ppm, 48-Hour Biofilm",100%
same,LR,"[3]; 100 ppm, 48-Hour Biofilm",6.40
same,Kill %,"[4]; 50 ppm, 24-Hour Biofilm",100%
same,LR,"[4]; 50 ppm, 24-Hour Biofilm",6.09
same,Kill %,"[4]; 50 ppm, 48-Hour Biofilm",100%
same,LR,"[4]; 50 ppm, 48-Hour Biofilm",6.41
same,Kill %,"[4]; 100 ppm, 24-Hour Biofilm",100%
same,LR,"[4]; 100 ppm, 24-Hour Biofilm",6.09
same,Kill %,"[4]; 100 ppm, 48-Hour Biofilm",100%
same,LR,"[4]; 100 ppm, 48-Hour Biofilm",6.41
same,Kill %,"[5]; 50 ppm, 24-Hour Biofilm",100%
same,LR,"[5]; 50 ppm, 24-Hour Biofilm",5.40
same,Kill %,"[5]; 50 ppm, 48-Hour Biofilm",100%
same,LR,"[5]; 50 ppm, 48-Hour Biofilm",6.43
same,Kill %,"[5]; 100 ppm, 24-Hour Biofilm",100%
same,LR,"[5]; 100 ppm, 24-Hour Biofilm",5.40
same,Kill %,"[5]; 100 ppm, 48-Hour Biofilm",100%
same,LR,"[5]; 100 ppm, 48-Hour Biofilm",6.43
same,Kill %,"[6]; 50 ppm, 24-Hour Biofilm",100%
same,LR,"[6]; 50 ppm, 24-Hour Biofilm",6.44
same,Kill %,"[6]; 50 ppm, 48-Hour Biofilm",100%
same,LR,"[6]; 50 ppm, 48-Hour Biofilm",6.50
same,Kill %,"[6]; 100 ppm, 24-Hour Biofilm",100%
same,LR,"[6]; 100 ppm, 24-Hour Biofilm",6.44
same,Kill %,"[6]; 100 ppm, 48-Hour Biofilm",100%
same,LR,"[6]; 100 ppm, 48-Hour Biofilm",6.50
same,Kill %,"[7]; 50 ppm, 24-Hour Biofilm",100%
same,LR,"[7]; 50 ppm, 24-Hour Biofilm",7.44
same,Kill %,"[7]; 50 ppm, 48-Hour Biofilm",100%
same,LR,"[7]; 50 ppm, 48-Hour Biofilm",8.44
same,Kill %,"[7]; 100 ppm, 24-Hour Biofilm",100%
same,LR,"[7]; 100 ppm, 24-Hour Biofilm",7.44
same,Kill %,"[7]; 100 ppm, 48-Hour Biofilm",100%
same,LR,"[7]; 100 ppm, 48-Hour Biofilm",8.44
